Data on eight compounds can be found in patent publication US11884707B2, “Compositions for detection, inhibition and imaging of indoleamine 2, 3-dioxygenase 1 (IDO1) and methods of making and using same” (Regeneron Pharmaceuticals, Inc., priority 2016, dated 2024).

This assay deals with T1, His-tagged IDO1 human recombinant protein (Homo sapiens, UniProt P14902).
T1 construct: purchased BPS Biosciences 71182
The experiment in a line: IDO1 ELISA (affinity assay), sandwich ELISA with immobilized biotinylated macrocycle. The format is binding. As to conditions: for EC50: biotin-PEG3-modified macrocycle immobilized on NeutrAvidin plate (2 μM coating), His-tagged human IDO1 200 to 0 nM. The procedure: A black 96-well NeutrAvidin Coated High Binding Capacity plate (15510, Pierce) was coated with 2 μM biotinylated macrocyclic peptide ligand in TBS (25 mM Tris-HCl, 150 mM NaCl, pH 7.6) for 2 h at room temperature. The plate was aspirated and then washed with Wash Buffer (0.05% (v/v) Tween-20 in PBS, 6×). His-tagged IDO1 human recombinant protein (71182, BPS Biosciences) was serially diluted in Wash Buffer (from 200 to 0 nM) and incubated in the designated microwells for 1 h at room temperature. Microwells were aspirated and subsequently washed with Wash Buffer (11×). To detect the bound IDO1 protein, Alkaline Phosphatase (AP)-conjugated Anti-6×His Tag® antibody [HIS-1] (ab49746, Abcam) was prepared at 1:10,000 dilution and added to the microwells for 1 h at room temperature. The plate was aspirated and washed with Wash Buffer (5×). AttoPhos® AP Fluorescent Substrate System (S1000, Promega) was employed to develop the microwells. Using an excitation wavelength of 430 nm, fluorescent emission at 535 nm was recorded by Beckman Coulter DTX880 photometer. Titration curves were fit using a four-parameter regression curve fitting program to determine EC50 values.
The binding affinities of biotin-PEG3-modified macrocyclic peptide ligands were tested in an ELISA format. For these assays, a dilution series of His-tagged IDO1 human recombinant protein was captured using the macrocyclic peptide ligands immobilized on a NeutrAvidin-coated plate. […] The sequences of the peptide ligands are listed in Table 1, where D-amino acids are denoted in lowercase, Me-Trp=1-methyl-L-tryptophan, and F-Phe=4-fluoro-L-phenylalanine.
The D-alanine substituted, biotin-PEG3-modified macrocycles were tested in the IDO1 ELISA (Affinity assay). For these assays, a dilution series of His-tagged IDO1 human recombinant protein was captured using macrocycles immobilized on a NeutrAvidin-coated plate.
(ELISA stands for enzyme-linked immunosorbent assay.)

Where [1] appears, read: alanine scan and 3-mer/4-mer variants, biotin-PEG3-modified, FIGS. 15-18.

Where a SMILES comes first, the peptide text is derived from it. Bridges are numbered along the chain shown (N, C = ends). Triazole bridges read from a SMILES are 1,4-linked. [ ]: non-standard residue; d: D form. The star is where a group is joined. Biotinyl(3aR,4R,6aS) = O=C1N[C@@H]2[C@@H](CS[C@@H]2CCCCC(=O)*)N1; Biotin = O=C1N[C@H]2[C@H](CS[C@H]2CCCCC(=O)*)N1; Trp(1-Me) = Cn1cc(C[C@H](N)C(=O)O)c2ccccc21; Lys(N3) = [N-]=[N+]=NCCCC[C@H](N)C(=O)O; Phe(4-F) = N[C@@H](Cc1ccc(F)cc1)C(=O)O; AEEEA = NCCOCCOCCOCC(=O)O; Pra = C#CC[C@H](N)C(=O)O

T1 sequence (P14902 whole entry): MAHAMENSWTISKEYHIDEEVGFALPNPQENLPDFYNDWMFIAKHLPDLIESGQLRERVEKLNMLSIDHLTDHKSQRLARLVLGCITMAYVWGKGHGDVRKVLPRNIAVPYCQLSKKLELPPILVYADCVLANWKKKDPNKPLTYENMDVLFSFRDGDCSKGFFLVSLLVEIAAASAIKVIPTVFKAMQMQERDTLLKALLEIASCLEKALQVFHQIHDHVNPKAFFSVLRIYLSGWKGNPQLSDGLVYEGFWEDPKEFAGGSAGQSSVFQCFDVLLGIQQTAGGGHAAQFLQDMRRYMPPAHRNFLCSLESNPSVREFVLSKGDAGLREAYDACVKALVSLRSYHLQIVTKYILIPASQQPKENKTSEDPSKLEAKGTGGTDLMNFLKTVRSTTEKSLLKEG

In general, EC50 refers to the concentration that produces a half-maximal response. As to `Cn1cc(C[C@@H]2NC(=O)[C@@H](Cc3ccccc3)NC(=O)[C@@H](CCCNC(=N)N)NC(=O)[C@@H](Cc3ccccc3)NC(=O)[C@@H](NC(=O)COCCOCCOCCNC(=O)CCCC[C@@H]3SC[C@@H]4NC(=O)N[C@@H]43)Cc3cn(nn3)CCCC[C@@H](C(N)=O)NC(=O)[C@@H](CO)NC2=O)c2ccccc21` [biotin-PEG3-Cy(frf(Me-Trp)s)] ({Biotin-AEEEA}-[Pra][dF][dR][dF][Trp(1-Me)][dS][Lys(N3)]-NH2; triazole 1-7), the EC50 came to 20 nM. For the compound `Cn1cc(C[C@@H]2NC(=O)[C@@H](CCCNC(=N)N)NC(=O)[C@@H](Cc3ccccc3)NC(=O)[C@@H](CO)NC(=O)[C@@H](CC(N)=O)NC(=O)[C@@H](NC(=O)COCCOCCOCCNC(=O)CCCC[C@@H]3SC[C@@H]4NC(=O)N[C@@H]43)Cc3cn(nn3)CCCC[C@@H](C(N)=O)NC2=O)c2ccccc21` [biotin-PEG3-Cy(nsfr(Me-Trp))] ({Biotin-AEEEA}-[Pra][dN][dS][dF][dR][Trp(1-Me)][Lys(N3)]-NH2; triazole 1-7), the EC50 came to 124 nM. Same read-out and setting: in the case of `CC(C)C[C@H]1NC(=O)[C@@H](Cc2ccc(O)cc2)NC(=O)[C@@H](Cc2ccccc2)NC(=O)[C@@H](Cc2ccccc2)NC(=O)[C@@H](CCCNC(=N)N)NC(=O)[C@@H](NC(=O)COCCOCCOCCNC(=O)CCCC[C@@H]2SC[C@@H]3NC(=O)N[C@@H]32)Cc2cn(nn2)CCCC[C@@H](C(N)=O)NC1=O` [biotin-PEG3-Cy(rffyl)] ({Biotin-AEEEA}-[Pra][dR][dF][dF][dY][dL][Lys(N3)]-NH2; triazole 1-7) it was 125 nM; in that of `C[C@H]1NC(=O)[C@@H](CCCNC(=N)N)NC(=O)[C@@H](Cc2ccc(O)cc2)NC(=O)[C@@H](Cc2c[nH]c3ccccc23)NC(=O)[C@@H](NC(=O)COCCOCCOCCNC(=O)CCCC[C@@H]2SC[C@@H]3NC(=O)N[C@@H]32)Cc2cn(nn2)CCCC[C@@H](C(N)=O)NC(=O)[C@@H](Cc2ccc(O)cc2)NC1=O` [biotin-PEG3-Cy(wyray)] ({Biotin-AEEEA}-[Pra][dW][dY][dR][dA][dY][Lys(N3)]-NH2; triazole 1-7), 25 nM. As to `C[C@H]1NC(=O)[C@@H](Cc2ccccc2)NC(=O)[C@@H](CCCNC(=N)N)NC(=O)[C@@H](Cc2ccccc2)NC(=O)[C@@H](NC(=O)COCCOCCOCCNC(=O)CCCC[C@@H]2SC[C@@H]3NC(=O)N[C@@H]32)Cc2cn(nn2)CCCC[C@@H](C(N)=O)NC(=O)[C@@H](CO)NC1=O` [frfas, Biotin-PEG3-Cy(frfas)] ({Biotin-AEEEA}-[Pra][dF][dR][dF][dA][dS][Lys(N3)]-NH2; triazole 1-7), under setting [1], the “Binding affinity to human IDO1 relative to parent macrocycle or sibling variants (in words)” value is “weakest binding to IDO1”. For the compound `CC(C)C[C@H]1NC(=O)[C@@H](NC(=O)COCCOCCOCCNC(=O)CCCC[C@H]2SC[C@H]3NC(=O)N[C@H]32)Cc2cn(nn2)CCCC[C@@H](C(N)=O)NC(=O)[C@H](Cc2ccc(F)cc2)NC(=O)[C@H](Cc2cn(C)c3ccccc23)NC(=O)[C@@H](Cc2ccccc2)NC1=O` [lf(Me-Trp)(F-Phe), Biotin-PEG3-Cy(lf(Me-Trp)(F-Phe))] ({Biotinyl(3aR,4R,6aS)-AEEEA}-[Pra][dL][dF][Trp(1-Me)][Phe(4-F)][Lys(N3)]-NH2; triazole 1-6), under setting [1], the “Binding affinity to human IDO1 relative to parent macrocycle or sibling variants (in words)” value was “slight decrease in binding affinity”. As to `NC(=O)[C@@H]1CCCCn2cc(nn2)C[C@H](NC(=O)COCCOCCOCCNC(=O)CCCC[C@@H]2SC[C@@H]3NC(=O)N[C@@H]32)C(=O)N[C@H](CO)C(=O)N[C@H](Cc2c[nH]c3ccccc23)C(=O)N[C@H](Cc2c[nH]c3ccccc23)C(=O)N[C@@H](Cc2ccc(F)cc2)C(=O)N1` [sww(F-Phe), Biotin-PEG3-Cy(sww(F-Phe))] ({Biotin-AEEEA}-[Pra][dS][dW][dW][Phe(4-F)][Lys(N3)]-NH2; triazole 1-6), the “Maximum ELISA signal for human IDO1 binding (in words)” value under setting [1] was “superior to the other 4-mers generated”. Take `N=C(N)NCCC[C@H]1NC(=O)[C@@H](Cc2ccc(O)cc2)NC(=O)[C@@H](Cc2c[nH]c3ccccc23)NC(=O)[C@@H](NC(=O)COCCOCCOCCNC(=O)CCCC[C@H]2SC[C@H]3NC(=O)N[C@H]32)Cc2cn(nn2)CCCC[C@@H](C(N)=O)NC(=O)[C@@H](Cc2ccc(O)cc2)NC1=O` [wyry, Biotin-PEG3-Cy(wyry)] ({Biotinyl(3aR,4R,6aS)-AEEEA}-[Pra][dW][dY][dR][dY][Lys(N3)]-NH2; triazole 1-6): the “Binding affinity to human IDO1 relative to parent macrocycle or sibling variants (in words)” value under setting [1] was “best affinity among the 4-mer macrocycles”.
